Experiments:
Aβ42 [1] = assay: HEK assay: Aβ42 secreted to cell medium, Meso Scale Discovery electrochemiluminescence; format: cell-based; conditions: Homo sapiens, HEK293; HEK cell line stably expressing APPswe; 4-6 hours incubation with test compound; read-out: pIC50 Aβ42 HEK assay (converted)
Protocol: Compounds were diluted in 100% DMSO and stored at […] prior to use. Human Embryonic Kidney (HEK) cell line stably expressing APP with the Swedish mutation (APPswe) was cultured using Dulbecco's Modified Eagles medium (DMEM) supplied with […] glucose, Na-pyruvate and GlutaMAX, 10% Foetal bovine serum, 100 U/mL penicillin-streptomycin (PEST), 1× non-essential amino acids (NEAA), […] Hepes, 100 μg/mL Zeocine. Cells at about 80% confluence were washed with PBS, detached from culture flasks using 1× Trypsin/EDTA diluted in PBS, re-suspended in cell media and plated in 384-well poly-d-lysine coated cell culture plates at about 10000-15000 cells/well, in 25 μL cell media. Optionally, cryo-preserved cells (frozen and stored at −140° C. in 90% cell media and 10% DMSO) were thawed, washed and plated as above. Next the cells were incubated for 15-24 h at 37° C. and 5% CO2, after which cell medium was changed. Fresh medium containing test compound diluted ×200 from prepared compound plate was added to the cells before further incubation for 4-6 hours at 37° C. and 5% CO2. After incubation with test compound the amount of Aβ peptides, including Aβ42, Aβ40, Aβ39, Aβ38 and Aβ37, secreted to cell medium was analyzed using the electrochemiluminescence assay technology from Meso Scale Discovery Technology, in combination with specific antibodies raised against the different Aβ peptides. Potential cytotoxic effects of the compounds were assayed by measuring the ATP content (ViaLight) from cell lysate.

Aβ42 [2] = assay: PCN assay: Aβ42 secreted by primary cortical neuronal cells, ELISA; format: cell-based; conditions: primary cortical neuronal cells from 16-day mouse embryos; 16-20 hours incubation with test compound; read-out: pIC50 Aβ42 PCN assay (converted)
Protocol: Compounds were diluted in 100% DMSO and stored at […] prior to use. Primary cortical neuronal cells (PCN) were isolated from 16-day mouse embryos and cultured in Ham's F12 media containing 10% Foetal bovine serum, 10 mM Hepes, 2 mM L-glutamine and 100 U/mL Penicillin-Streptomycin. 150000-250000 cells/well, in 200 μL cell media were seeded onto 96-well poly-D-Lysine coated plates. After incubation at 37° C., 5% CO2 for five days, the media was exchanged for fresh medium containing test compound diluted ×100, before further incubation for 16-20 hours at 37° C. and 5% CO2. After incubation with test compound the amount of […] secreted to cell medium was analyzed using the solid phase sandwich Enzyme-Linked-Immuno-Sorbent Assay (ELISA)-kit from Invitrogen for detection of mouse βAmyloid 1-42. Potential cytotoxic effects of the compounds were assayed by measuring the ATP content (Via Light) from cell lysate.

Row | Structure (SMILES) | IC50 (Aβ42 [1]) [nM] | IC50 (Aβ42 [2]) [nM]
1 | COc1cc(Nc2nc(COCC(F)(F)F)cc(N3CCC(F)(F)CC3)n2)ccc1-c1cnnc(C)c1 [Example 22, 4-(4,4-Difluoropiperidin-1-yl)-N-(3-methoxy-4-(6-methylpyridazin-4-yl)phenyl)-6-((2,2,2-trifluoroethoxy)methyl)pyrimidin-2-amine] | 79.4 | 63.1
2 | COc1cc(Nc2nc(COCC(F)(F)F)cc(NC(C)C)n2)ccc1-c1cnnc(C)c1 [Example 23, N^4-Isopropyl-N^2-(3-methoxy-4-(6-methylpyridazin-4-yl)phenyl)-6-((2,2,2-trifluoroethoxy)-methyl)pyrimidine-2,4-diamine] | 79.4 | 79.4
3 | CNc1cc(COCC(F)(F)F)nc(Nc2ccc(-c3cnnc(C)c3)c(OC)c2)n1 [Example 24, N^2-(3-Methoxy-4-(6-methylpyridazin-4-yl)phenyl)-N^4-methyl-6-((2,2,2-trifluoroethoxy)-methyl)pyrimidine-2,4-diamine] | 100 | 79.4
4 | COc1cc(Nc2nc(COCC(F)(F)F)cc(N(C)Cc3ccccc3)n2)ccc1-n1cnc(C)c1 [Example 25, N^4-Benzyl-N^2-(3-methoxy-4-(4-methyl-1H-imidazol-1-yl)phenyl)-N^4-methyl-6-((2,2,2-trifluoroethoxy)methyl)pyrimidine-2,4-diamine] | 25.1 | 50.1
5 | COc1cc(Nc2nc(COCC(F)(F)F)cc(N3CCC(F)(F)CC3)n2)ccc1-n1cnc(C)c1 [Example 26, 4-(4,4-Difluoropiperidin-1-yl)-N-(3-methoxy-4-(4-methyl-1H-imidazol-1-yl)phenyl)-6-((2,2,2-trifluoroethoxy)methyl)pyrimidin-2-amine] | 50.1 | 20
6 | COCc1cc(C(C)(C)O)nc(Nc2ccc(-n3cnc(C)c3)c(OC)c2)n1 [Example 27, 2-(2-(3-Methoxy-4-(4-methyl-1H-imidazol-1-yl)phenylamino)-6-(methoxymethyl)pyrimidin-4-yl)propan-2-ol] | 158 | 126
7 | COc1cc(Nc2nc(COCC(F)(F)F)cc(C(O)C3CC3)n2)ccc1-n1cnc(C)c1 (stereo not drawn) [Example 28, Cyclopropyl(2-(3-methoxy-4-(4-methyl-1H-imidazol-1-yl)phenylamino)-6-((2,2,2-trifluoroethoxy)methyl)pyrimidin-4-yl)methanol] | 39.8 | 100
8 | COc1cc(Nc2nc(COCC3CC3)cc(C(C)(C)O)n2)ccc1-n1cnc(C)c1 [Example 29, 2-(6-((Cyclopropylmethoxy)methyl)-2-(3-methoxy-4-(4-methyl-1H-imidazol-1-yl)phenylamino)pyrimidin-4-yl)propan-2-ol] | 39.8 | 63.1
9 | CNc1cc(COCC2CC2)nc(Nc2ccc(-n3cnc(C)c3)c(OC)c2)n1 [Example 30, 6-((Cyclopropylmethoxy)methyl)-N2-(3-methoxy-4-(4-methyl-1H-imidazol-1-yl)phenyl)-N4-methylpyrimidine-2,4-diamine] | 39.8 | 63.1
10 | COc1cn(-c2ccc(Nc3nc(COCC(F)(F)F)cc(C(C)O)n3)cc2OC)cn1 (stereo not drawn) [Example 31, 1-(2-(3-Methoxy-4-(4-methoxy-1H-imidazol-1-yl)phenylamino)-6-((2,2,2-trifluoroethoxy)-methyl)pyrimidin-4-yl)ethanol] | 251 | 316
11 | COc1cn(-c2ccc(Nc3nc(COCC(F)(F)F)cc(C(C)(C)O)n3)cc2OC)cn1 [Example 32, 2-(2-(3-Methoxy-4-(4-methoxy-1H-imidazol-1-yl)phenylamino)-6-((2,2,2-trifluoroethoxy)-methyl)pyrimidin-4-yl)propan-2-ol] | 100 | 316
12 | COc1cc(Nc2nc(COCC(F)(F)F)cc(NCC3CC3)n2)ccc1-n1cnc(C)c1 [Example 33, N^4-(Cyclopropylmethyl)-N^2-(3-methoxy-4-(4-methyl-1H-imidazol-1-yl)phenyl)-6-((2,2,2-trifluoroethoxy)methyl)pyrimidine-2,4-diamine] | 39.8 | 50.1
